From patent US20190264229A1, “DEVICE, SYSTEM AND METHOD FOR INTRACELLULAR DELIVERY OF SUBSTANCES” (Agency for Science, Technology and Research, priority 2016, published 2019)

Tested on: HEK293T cells
Test: Pipette tip filter loading of fluorescein-labeled cargo into HEK293T cells, flow cytometry
Assay type: cell-based
Details: pipetted through the filter vs not passed through the filter, 0.4 million HEK293T, 12 hours recovery
Description: To establish if other cargoes can be loaded with this method, 0.4 million HEK293T cells were mixed with 50 pmoles of fluorescein-labeled 21nt DNA oligonucleotide, 50 pmoles of fluorescein-labeled 21nt double-stranded siRNA, or 5 μg of fluorescein-dextran (MW 3000-5000) in 500 μl of OptiMEM. The mixture was aspirated and dispensed through the filter with the 1 ml pipette in triplicates. The mixture was then transferred into 2 ml of regular DMEM medium and the cells allowed to recover for 12 hours at 37° C. After which, the cells were washed 3 times with DMEM and collected for flow cytometry.

Substance: Dextran
- percentage of cells having a higher than background fluorescence: clearly higher
